Tests used:
Format in all cases: cell-based
[1] = system: ovarian cancer cells ovcar3; test: Colony formation assay, ovcar3
Protocol: Colony formation assays were performed with ovarian cancer cells ovcar3 and ovarian surface epithelial cells T80 to examine the impact of DOX, […]-Dox, or GQDs-Dox on the cell growth inhibition.

ovarian cells Ovcar3 = test: MTT cell viability assay, Ovcar3; conditions: Homo sapiens, OVCAR-3; Ovcar3, 24 h, concentration equivalent to Dox; read-out: IC50 (relative cellular viability)
Protocol: (§1) Cells were treated with various concentrations of GQDs-FA-Dox (0, 0.25, 0.5, 1, 2, and 4 μM equivalent to Dox) for 24 h and 48 h, respectively. Cell viability was determined by the MTT assay. In brief, the cells were treated with GQDs-FA-Dox conjugates, 10 μL MTT (5 mg/ml) was added into each well and incubated for 4 h, culture medium was removed and 100 μL DMSO was added to dissolve formazan crystals. Absorbance was read at 560 nm for formazan and 670 nm for background by Synergy H4 hybrid multi-mode microplate reader (BioTek).
(§2) To determine the effective dosage of GQDs-FA-Dox on ovarian cancer cells and normal cells, a dose-course MTT assay was done on Ovcar3 cells. The cells were treated with a series of concentration of DOX, GQDs-FA-Dox, and GQDs-Dox for 0.01 to 4 μM (equivalent to Dox concentration) for 24 h.

[2] = system: normal ovary epithelial cells T80; test: MTT cell viability assay, T80; conditions: T80, 24 h, concentration equivalent to Dox, read-out: IC50 (relative cellular viability)
Protocol: as §1, §2

Row | Structure (SMILES) | colony growth ([1]; ovcar3) | IC50 (ovarian cells Ovcar3) [nM] | IC50 [2] [nM] | effect of folic acid on ovcar3 cells in response of GQDs-FA-DOX ([1]; ovcar3, colony formation, co-treatment with GQDs-FA-DOX)
1 | COc1cccc2c1C(=O)c1c(O)c3c(c(O)c1C2=O)C[C@@](O)(C(=O)CO)C[C@@H]3O[C@H]1C[C@H](N)[C@H](O)[C@H](C)O1 [DOX, Doxorubicin] | strongly inhibited | 930 | 860 | 
2 | Nc1nc2ncc(CNc3ccc(C(=O)N[C@@H](CCC(=O)O)C(=O)O)cc3)nc2c(=O)[nH]1 [Folic acid, folic acid] |  |  |  | protective effect

Reference: patent US10493170B1, “Targeted graphene quantum dot-based theranostics” (University of South Florida, priority 2014, dated 2019)
